According to PubChem BioAssay AID248 (DTP/NCI, 2004):
Where “and” joins values, the source holds several entries; their conditions need not be identical. Equal values may be shown once. Toxic doses and inconclusive results are not listed. Rule as the data show it: active = T/C of 150% or more; inactive = T/C below 125%.

Test system: L1210 leukemia ip in BDF1 mice, survival T/C
Assay: NCI In Vivo Anticancer Drug Screen. Data for tumor model L1210 Leukemia (intraperitoneal) in B6D2F1 (BDF1) mice
Conditions: endpoint: mean survival time, higher = longer survival
In short: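 Mice bearing the transplanted tumor received compound or vehicle. Survival of the treated group was divided by that of the vehicle-treated control group to give the ratio.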

[1] = dose: 100.0 mg/kg/injection, schedule: Q04DX003 (ip), vehicle: saline
[2] = dose: 200.0 mg/kg/injection, schedule: Q04DX003 (ip), vehicle: saline
[3] = dose: 100.0 mg/kg/injection, schedule: Q01DX009 (ip), vehicle: saline with Tween-80
[4] = dose: 100.0 mg/kg/injection, schedule: Q04DX003 (ip), vehicle: Klucel (hydroxypropylcellulose) (HPC)
[5] = dose: 200.0 mg/kg/injection, schedule: Q04DX003 (ip), vehicle: Klucel (hydroxypropylcellulose) (HPC)
[6] = dose: 400.0 mg/kg/injection, schedule: Q04DX003 (ip), vehicle: Klucel (hydroxypropylcellulose) (HPC)
[7] = dose: 200.0 mg/kg/injection, schedule: Q04DX002 (ip), vehicle: saline with Tween-80
[8] = dose: 100.0 mg/kg/injection, schedule: Q01DX009 (ip), vehicle: Klucel (hydroxypropylcellulose) (HPC)
[9] = dose: 200.0 mg/kg/injection, schedule: Q01DX009 (ip), vehicle: Klucel (hydroxypropylcellulose) (HPC)
[10] = dose: 400.0 mg/kg/injection, schedule: Q01DX009 (ip), vehicle: Klucel (hydroxypropylcellulose) (HPC)
[11] = dose: 25.0 mg/kg/injection, schedule: Q04DX003 (ip), vehicle: saline with Tween-80

Measured: T/C

COC(=O)C(C)(C)Br
inactive: dose: 100.0 mg/kg/injection, schedule: Q01DX009 (ip), vehicle: saline sonified 94 % of control | dose: 200.0 mg/kg/injection, schedule: Q01DX009 (ip), vehicle: saline sonified 100 % of control | dose: 400.0 mg/kg/injection, schedule: Q01DX009 (ip), vehicle: saline sonified 100 % of control

COc1cc2c(cc1OC)C(CN)C2 (centres undefined)
inactive: dose: 50.0 mg/kg/injection, schedule: Q01DX009 (ip), vehicle: saline 101 % of control | dose: 100.0 mg/kg/injection, schedule: Q01DX009 (ip), vehicle: saline 103 % of control | [1] 116 % of control | dose: 200.0 mg/kg/injection, schedule: Q01DX009 (ip), vehicle: saline 89 % of control | [2] 119 % of control

CCc1ccc(NC(=S)NC(=O)C(C)Oc2ccccc2)cc1 (centres undefined)
inactive: dose: 100.0 mg/kg/injection, schedule: Q04DX002 (ip), vehicle: saline 110 % of control | dose: 200.0 mg/kg/injection, schedule: Q04DX002 (ip), vehicle: saline 103 % of control | dose: 400.0 mg/kg/injection, schedule: Q04DX002 (ip), vehicle: saline 90 % of control

COC(=O)CC(=O)C(C)(C)C
inactive: dose: 50.0 mg/kg/injection, schedule: Q01DX009 (ip), vehicle: saline with Tween-80 101 % of control | [3] 101 % of control | dose: 200.0 mg/kg/injection, schedule: Q01DX009 (ip), vehicle: saline with Tween-80 101 % of control

Cc1cc(Br)ccc1NNS(=O)(=O)c1cccc(N)c1
inactive: dose: 100.0 mg/kg/injection, schedule: Q01DX001 (ip), vehicle: Klucel (hydroxypropylcellulose) (HPC) 98 % of control | [4] 91 % of control | dose: 200.0 mg/kg/injection, schedule: Q01DX001 (ip), vehicle: Klucel (hydroxypropylcellulose) (HPC) 107 % of control | [5] 97 % of control | dose: 400.0 mg/kg/injection, schedule: Q01DX001 (ip), vehicle: Klucel (hydroxypropylcellulose) (HPC) 91 % of control | [6] 107 % of control

O=C1[O][Hg][c]2c1cccc2[N+](=O)[O-]
inactive: dose: 2.5 mg/kg/injection, schedule: Q01DX009 (ip), vehicle: Klucel (hydroxypropylcellulose) (HPC) 92 % of control | dose: 2.5 mg/kg/injection, schedule: Q04DX003 (ip), vehicle: Klucel (hydroxypropylcellulose) (HPC) 89 % of control | dose: 5.0 mg/kg/injection, schedule: Q01DX009 (ip), vehicle: Klucel (hydroxypropylcellulose) (HPC) 90 % of control | dose: 5.0 mg/kg/injection, schedule: Q04DX003 (ip), vehicle: Klucel (hydroxypropylcellulose) (HPC) 88 % of control | dose: 10.0 mg/kg/injection, schedule: Q01DX009 (ip), vehicle: Klucel (hydroxypropylcellulose) (HPC) 92 % of control | dose: 10.0 mg/kg/injection, schedule: Q04DX003 (ip), vehicle: Klucel (hydroxypropylcellulose) (HPC) 93 % of control and 96 % of control | dose: 20.0 mg/kg/injection, schedule: Q04DX003 (ip), vehicle: Klucel (hydroxypropylcellulose) (HPC) 98 % of control

COc1ccc(CCNC(c2ccccc2)c2ccccc2)cc1OC
inactive: [1] 105 % of control | [2] 108 % of control | dose: 400.0 mg/kg/injection, schedule: Q04DX003 (ip), vehicle: saline 105 % of control

CCCCCCCCCCCC(CCCCCCCC)C1CCCCC1 (centres undefined)
inactive: dose: 100.0 mg/kg/injection, schedule: Q01DX001 (ip), vehicle: saline + alcohol 101 % of control | dose: 200.0 mg/kg/injection, schedule: Q01DX001 (ip), vehicle: saline + alcohol 103 % of control | dose: 400.0 mg/kg/injection, schedule: Q01DX001 (ip), vehicle: saline + alcohol 108 % of control

Cc1ccc(C(C)(C)CP(c2ccccc2)c2ccccc2)cc1
inactive: dose: 25.0 mg/kg/injection, schedule: Q04DX002 (ip), vehicle: saline with Tween-80 95 % of control | dose: 50.0 mg/kg/injection, schedule: Q04DX002 (ip), vehicle: saline with Tween-80 92 % of control | [7] 89 % of control

CCN(CC)CCCOC(=O)C(c1ccccc1)C1CCCCC1 (centres undefined)
inactive: dose: 6.25 mg/kg/injection, schedule: Q01DX009 (ip), vehicle: saline 97 % of control | dose: 6.25 mg/kg/injection, schedule: Q04DX003 (ip), vehicle: saline 100 % of control | dose: 12.5 mg/kg/injection, schedule: Q01DX009 (ip), vehicle: saline 94 % of control | dose: 12.5 mg/kg/injection, schedule: Q04DX003 (ip), vehicle: saline 102 % of control | dose: 25.0 mg/kg/injection, schedule: Q01DX009 (ip), vehicle: saline 94 % of control | dose: 25.0 mg/kg/injection, schedule: Q04DX003 (ip), vehicle: saline 102 % of control

CC(C(=O)O)N1C(=O)c2ccccc2C1=O (centres undefined)
inactive: [8] 93 % of control | [4] 92 % of control | [9] 95 % of control | [5] 97 % of control | [10] 90 % of control | [6] 94 % of control

CCCCCCCC(C)NCCCO (centres undefined)
inactive: dose: 75.0 mg/kg/injection, schedule: Q01DX001 (ip), vehicle: saline 90 % of control

Cc1cc(C)c(O)c(C)c1C
inactive: [3] 104 % of control | dose: 400.0 mg/kg/injection, schedule: Q01DX009 (ip), vehicle: saline with Tween-80 95 % of control

CCCCCCCCCCCCCCCCCCNC(=O)N(c1ccccc1)C1CCCCC1
inactive: dose: 100.0 mg/kg/injection, schedule: Q04DX002 (ip), vehicle: Klucel (hydroxypropylcellulose) (HPC) 101 % of control | dose: 200.0 mg/kg/injection, schedule: Q04DX002 (ip), vehicle: Klucel (hydroxypropylcellulose) (HPC) 93 % of control | dose: 400.0 mg/kg/injection, schedule: Q04DX002 (ip), vehicle: Klucel (hydroxypropylcellulose) (HPC) 87 % of control

BrC1=C(c2ccccc2)C2CCCCC2C1(Br)c1ccccc1 (centres undefined)
inactive: [8] 103 % of control | [9] 105 % of control | [10] 114 % of control

CC(=O)c1cc(C)c(O)cc1C
inactive: dose: 100.0 mg/kg/injection, schedule: Q04DX002 (ip), vehicle: saline with Tween-80 103 % of control | [7] 92 % of control | dose: 400.0 mg/kg/injection, schedule: Q04DX002 (ip), vehicle: saline with Tween-80 111 % of control

O=C1CCSC(=S)N1c1cccc(C(F)(F)F)c1
inactive: [11] 101 % of control | dose: 50.0 mg/kg/injection, schedule: Q04DX003 (ip), vehicle: saline with Tween-80 104 % of control | dose: 100.0 mg/kg/injection, schedule: Q04DX003 (ip), vehicle: saline with Tween-80 104 % of control

O=[N+]([O-])c1cc[n+]([O-])cc1
inactive: dose: 6.25 mg/kg/injection, schedule: Q01DX009 (ip), vehicle: saline with Tween-80 98 % of control | dose: 6.25 mg/kg/injection, schedule: Q04DX003 (ip), vehicle: saline with Tween-80 96 % of control | dose: 12.5 mg/kg/injection, schedule: Q01DX009 (ip), vehicle: saline with Tween-80 96 % of control | dose: 12.5 mg/kg/injection, schedule: Q04DX003 (ip), vehicle: saline with Tween-80 96 % of control | dose: 25.0 mg/kg/injection, schedule: Q01DX009 (ip), vehicle: saline with Tween-80 91 % of control | [11] 95 % of control

CCOC(=O)C(C)(NC(C)=O)C(C)=O (centres undefined)
inactive: dose: 50.0 mg/kg/injection, schedule: Q01DX001 (ip), vehicle: carboxymethylcellulose (CMC) 106 % of control | dose: 100.0 mg/kg/injection, schedule: Q01DX001 (ip), vehicle: carboxymethylcellulose (CMC) 114 % of control | dose: 200.0 mg/kg/injection, schedule: Q01DX001 (ip), vehicle: carboxymethylcellulose (CMC) 101 % of control | dose: 400.0 mg/kg/injection, schedule: Q01DX001 (ip), vehicle: carboxymethylcellulose (CMC) 92 % of control

O=C1OCC2C1C1CCC2C1(Cl)Cl (centres undefined)
inactive: dose: 75.0 mg/kg/injection, schedule: Q01DX001 (ip), vehicle: other 98 % of control
